Results reported in patent publication US20220242870A1, “HETEROCYCLE-FUSED PYRIMIDINE DERIVATIVE AND USE THEREOF” (VORONOI Inc., priority 2019, published 2022).

How the values were obtained:
MV4-11 cells = assay: AML cell proliferation inhibitory activity (CellTiter-Glo); format: cell-based; conditions: Homo sapiens, 72 hours
How it was run: (§1)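 RS4;11 and MV4-11 cells in RPMI-1640 with 10% FBS, seeded 24 h before treatment, then exposed 72 h to 12 three-fold dilutions (0.3 nM–50 μM final). Viability by CellTiter-Glo luminescence relative to solvent control; GI50 from triplicate experiments.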

RS4;11 cells = assay: as above; format: cell-based; conditions: Homo sapiens, 72 hours
How it was run: as §1

MCF-7 cells = assay: Breast cancer cell line proliferation inhibitory activity (CellTiter-Glo 2.0); format: cell-based; conditions: Homo sapiens, MCF7, 120 hours
How it was run: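 MCF-7 cells exposed to a 12-point, 3-fold dilution series (final 0.00005–10 μM) for 120 h at 37 °C. Viability read by CellTiter-Glo 2.0 luminescence, expressed as percent of vehicle-treated cells. GI50 (nM) derived from the curves.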

human FLT3-ITD enzyme = molecular target: T1, human FLT3-ITD enzyme (Homo sapiens, UniProt P36888); assay: FLT3 enzyme inhibitory ability (ADP-Glo kinase assay); format: biochemical; conditions: human FLT3-ITD enzyme 10 ng, ATP 10 μM, 25° C. 1 hour
T1 sequence (P36888 1-993): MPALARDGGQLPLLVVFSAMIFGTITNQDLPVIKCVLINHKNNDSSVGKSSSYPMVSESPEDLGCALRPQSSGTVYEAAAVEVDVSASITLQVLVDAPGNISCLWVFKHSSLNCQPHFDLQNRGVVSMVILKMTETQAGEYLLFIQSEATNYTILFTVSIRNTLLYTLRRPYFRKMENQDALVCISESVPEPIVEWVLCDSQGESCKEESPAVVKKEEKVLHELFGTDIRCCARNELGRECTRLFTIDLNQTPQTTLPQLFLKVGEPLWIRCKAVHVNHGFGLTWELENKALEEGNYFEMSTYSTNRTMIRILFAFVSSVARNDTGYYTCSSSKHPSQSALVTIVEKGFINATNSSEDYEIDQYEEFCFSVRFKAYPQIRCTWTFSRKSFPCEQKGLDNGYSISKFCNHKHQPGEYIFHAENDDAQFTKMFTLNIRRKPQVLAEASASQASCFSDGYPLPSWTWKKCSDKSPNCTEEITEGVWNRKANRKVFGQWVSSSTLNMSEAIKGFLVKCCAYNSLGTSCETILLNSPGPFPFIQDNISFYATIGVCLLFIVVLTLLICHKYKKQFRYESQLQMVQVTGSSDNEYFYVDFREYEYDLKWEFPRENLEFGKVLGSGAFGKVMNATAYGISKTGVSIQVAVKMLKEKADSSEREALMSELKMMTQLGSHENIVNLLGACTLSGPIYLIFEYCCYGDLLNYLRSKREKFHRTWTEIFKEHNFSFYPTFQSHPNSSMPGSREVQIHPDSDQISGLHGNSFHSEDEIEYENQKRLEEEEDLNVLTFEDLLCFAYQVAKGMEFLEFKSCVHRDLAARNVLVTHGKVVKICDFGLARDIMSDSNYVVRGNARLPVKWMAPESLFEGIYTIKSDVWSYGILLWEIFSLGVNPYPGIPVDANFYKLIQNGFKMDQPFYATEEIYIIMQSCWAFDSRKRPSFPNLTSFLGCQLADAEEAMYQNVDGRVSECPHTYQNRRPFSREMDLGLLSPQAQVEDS
How it was run: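 Purified human FLT3-ITD (10 ng) with 10 μM ATP and specific substrate in 40 mM Tris-HCl pH 7.4, 20 mM MgCl2, 0.5 mg/mL BSA, 50 μM DTT, 1 h at 25 °C. ADP formation read by ADP-Glo luminescence; IC50 (nM) versus solvent-treated control.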

human GST-HPK1 (1-346) = molecular target: T2, human GST-HPK1 (1-346) (Homo sapiens, UniProt Q92918); assay: HPK1 enzyme inhibitory ability (ADP-Glo kinase assay); format: biochemical; conditions: human GST-HPK1 3 ng, ATP 3 uM, 25° C. 2 hours
T2 construct: purified human GST-HPK1 (1-346, Signalchem) enzyme; purchased Signalchem
T2 sequence (Q92918 1-346): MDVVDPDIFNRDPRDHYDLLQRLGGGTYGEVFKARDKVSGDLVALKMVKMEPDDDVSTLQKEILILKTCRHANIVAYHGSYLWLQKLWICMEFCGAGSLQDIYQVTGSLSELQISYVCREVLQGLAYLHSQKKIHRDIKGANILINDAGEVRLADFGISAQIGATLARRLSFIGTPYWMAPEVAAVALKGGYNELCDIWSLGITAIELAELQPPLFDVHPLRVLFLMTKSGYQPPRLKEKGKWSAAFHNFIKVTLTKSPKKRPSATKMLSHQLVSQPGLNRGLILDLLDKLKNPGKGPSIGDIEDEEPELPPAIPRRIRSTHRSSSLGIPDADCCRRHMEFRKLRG
How it was run: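 Human GST-HPK1(1-346), 3 ng, reacted with 3 uM ATP and specific substrate in 40 mM Tris-HCl pH 7.4, 20 mM MgCl2, 0.5 mg/mL BSA, 50 uM DTT for 2 h at 25° C. ADP-Glo luminescence read; IC50 (nM) relative to untreated solvent control.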

CDK4-cyclinD1 = CDK4-cyclinD1 (Homo sapiens, UniProt P11802); assay: CDK4 enzyme inhibitory ability (Reaction Biology); format: biochemical; set-up: purchased Reaction Biology (USA), contract assay; conditions: measured in Reaction Biology (USA)
Sequence of CDK4-cyclinD1 (P11802 whole entry): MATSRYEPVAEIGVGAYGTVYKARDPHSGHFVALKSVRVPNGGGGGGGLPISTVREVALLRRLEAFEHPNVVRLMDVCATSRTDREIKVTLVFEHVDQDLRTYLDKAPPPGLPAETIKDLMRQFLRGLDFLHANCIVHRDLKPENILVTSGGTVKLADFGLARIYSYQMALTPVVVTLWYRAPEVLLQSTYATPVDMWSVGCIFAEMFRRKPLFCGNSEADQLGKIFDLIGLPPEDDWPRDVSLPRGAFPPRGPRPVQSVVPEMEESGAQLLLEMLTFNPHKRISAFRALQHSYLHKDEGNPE
Sequence of CDK4-cyclinD1 (P24385 whole entry partner): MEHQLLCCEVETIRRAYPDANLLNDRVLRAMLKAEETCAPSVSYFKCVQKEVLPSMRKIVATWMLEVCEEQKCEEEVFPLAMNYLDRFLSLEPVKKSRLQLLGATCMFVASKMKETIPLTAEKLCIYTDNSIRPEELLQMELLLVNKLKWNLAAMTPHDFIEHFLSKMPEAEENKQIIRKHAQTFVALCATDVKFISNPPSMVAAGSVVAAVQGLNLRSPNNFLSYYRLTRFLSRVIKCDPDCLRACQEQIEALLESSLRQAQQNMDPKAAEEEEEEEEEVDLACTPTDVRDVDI
Procedure: (§2) In order to evaluate the CDK4 and CDK6 enzyme inhibitory activities of the example compounds according to the present invention, IC5O (nM) was measured for the CDK4 cyclin D1 and CDK6 cyclin D1 enzymes in Reaction Biology (USA), and the results were shown in Table 3 below.

CDK6 cyclin D1 = molecular target: T3, CDK6 cyclin D1 (Homo sapiens, UniProt Q00534); assay: CDK6 enzyme inhibitory ability (Reaction Biology); format: biochemical; conditions: measured in Reaction Biology (USA)
T3 construct: purchased Reaction Biology (USA), contract assay
T3 sequence (Q00534 whole entry): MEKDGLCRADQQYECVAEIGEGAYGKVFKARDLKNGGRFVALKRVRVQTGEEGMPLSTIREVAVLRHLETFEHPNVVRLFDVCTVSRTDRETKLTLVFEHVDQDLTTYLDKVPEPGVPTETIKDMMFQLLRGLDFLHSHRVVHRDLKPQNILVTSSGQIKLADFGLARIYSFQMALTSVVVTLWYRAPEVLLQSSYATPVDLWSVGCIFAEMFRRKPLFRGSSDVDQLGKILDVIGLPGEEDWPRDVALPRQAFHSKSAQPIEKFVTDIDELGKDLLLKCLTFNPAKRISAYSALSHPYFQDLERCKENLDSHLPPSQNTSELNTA
T3 sequence (P24385 whole entry partner): as the sequence (P24385 whole entry partner) above
Procedure: as §2

Row | SMILES | GI50 (MV4-11 cells) | GI50 (RS4;11 cells) | GI50 (MCF-7 cells) | IC50 (human FLT3-ITD enzyme) | IC50 (human GST-HPK1 (1-346)) | IC50 (CDK4-cyclinD1) | IC50 (CDK6 cyclin D1)
1 | CN(C)[C@H]1CCN(c2ccc(Nc3nc(N4N=CCC4c4ccccc4)c4sccc4n3)cc2)C1 (stereo partly drawn) [Example 44, N-(4-((S)-3-(dimethylamino)pyrrolidin-1-yl)phenyl)-4-(5-phenyl-4,5-dihydro-1H-pyrazol-1-yl)thieno[3,2-d]pyrimidin-2-amine] | ≥ 0.25 µM | > 0.5 µM | > 0.5 µM | > 0.5 µM | > 0.5 µM | – | –
2 | CCN(CC)CCOc1ccc(Nc2nc(N3N=CCC3c3ccccc3)c3sccc3n2)cc1 (stereo not drawn) [Example 45, N-(4-(2-(diethylamino)ethoxy)phenyl)-4-(5-phenyl-4,5-dihydro-1H-pyrazol-1-yl)thieno[3,2-d]pyrimidin-2-amine] | 0.25 to 0.5 µM | > 0.5 µM | > 0.5 µM | 0.25 to 0.5 µM | > 0.5 µM | – | –
3 | CCN(CC)CCCOc1ccc(Nc2nc(N3N=CCC3c3ccccc3)c3sccc3n2)cc1 (stereo not drawn) [Example 47, N-(4-(3-(diethylamino)propoxy)phenyl)-4-(5-phenyl-4,5-dihydro-1H-pyrazol-1-yl)thieno[3,2-d]pyrimidin-2-amine] | ≥ 0.25 µM | > 0.5 µM | > 0.5 µM | 0.25 to 0.5 µM | > 0.5 µM | – | –
4 | CCN(CC)CCCOc1c(C)cc(Nc2nc(N3N=CCC3c3ccccc3)c3sccc3n2)cc1C (stereo not drawn) [Example 48, N-(4-(3-(diethylamino)propoxy)-3,5-dimethylphenyl)-4-(5-phenyl-4,5-dihydro-1H-pyrazol-1-yl)thieno[3,2-d]pyrimidin-2-amine] | > 0.5 µM | > 0.5 µM | > 0.5 µM | > 0.5 µM | > 0.5 µM | – | –
5 | CCN1CCN(c2ccc(Nc3nc(N4OCC[C@H]4c4ccccc4)c4cc[nH]c4n3)cc2)CC1 [Example 79, (S)-N-(4-(4-ethylpiperazin-1-yl)phenyl)-4-(3-phenylisoxazolidin-2-yl)-7H-pyrrolo[2,3-d]pyrimidin-2-amine] | ≥ 0.25 µM | > 0.5 µM | > 0.5 µM | 0.25 to 0.5 µM | ≥ 0.25 µM | – | –
6 | CN1CCN(C2CCN(c3ccc(Nc4nc(N5OCC[C@H]5c5ccccc5)c5cc[nH]c5n4)cc3)CC2)CC1 [Example 84, (S)-N-(4-(4-(4-methylpiperazin-1-yl)piperidin-1-yl)phenyl)-4-(3-phenylisoxazolidin-2-yl)-7H-pyrrolo[2,3-d]pyrimidin-2-amine] | ≥ 0.25 µM | ≥ 0.25 µM | > 0.5 µM | ≥ 0.25 µM | ≥ 0.25 µM | – | –
7 | CN1CCN(c2ccc(Nc3nc(N4OCC[C@H]4c4ccccc4)c4c(Cl)c[nH]c4n3)cc2)CC1 [Example 116, (S)-5-chloro-N-(4-(4-methylpiperazin-1-yl)phenyl)-4-(3-phenylisoxazolidin-2-yl)-7H-pyrrolo[2,3-d]pyrimidin-2-amine] | > 0.5 µM | – | > 0.5 µM | ≥ 0.25 µM | ≥ 0.25 µM | ≥ 0.25 µM | ≥ 0.25 µM
8 | CN1CCN(c2ccc(Nc3nc(N4OCC[C@H]4c4ccccc4)c4c(C#N)c[nH]c4n3)cc2)CC1 [Example 118, (S)-2-((4-(4-methylpiperazin-1-yl)phenyl)amino)-4-(3-phenylisoxazolidin-2-yl)-7H-pyrrolo[2,3-d]pyrimidine-5-carbonitrile] | > 0.5 µM | – | > 0.5 µM | ≥ 0.25 µM | ≥ 0.25 µM | ≥ 0.25 µM | ≥ 0.25 µM
9 | CN1CCN(c2ccc(Nc3nc(N4OCC[C@H]4c4ccccc4)c4c(C(F)(F)F)c[nH]c4n3)cc2)CC1 [Example 123, (S)-N-(4-(4-methylpiperazin-1-yl)phenyl)-4-(3-phenylisoxazolidin-2-yl)-5-(trifluoromethyl)-7H-pyrrolo[2,3-d]pyrimidin-2-amine] | > 0.5 µM | – | > 0.5 µM | ≥ 0.25 µM | > 0.5 µM | ≥ 0.25 µM | ≥ 0.25 µM
